Data reported in ChEMBL document CHEMBL1201862, “PubChem BioAssay data set” (2004).
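All cell lines were grown in 96-well plates and treated with compound for 48 hours. GI50 is the concentration that inhibits growth by half.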 Active and inactive are the calls of the source. Rule as the data show it: active = GI50 up to about 1.1 µM and inactive = higher.

Key:
Experiment in all cases: NCI anticancer screen, dose series, 48 h
BT-549 = test system: BT-549
DU-145 = test system: DU-145
LOX IMVI = test system: LOX IMVI
M14 = test system: M14
MCF7 = test system: MCF7
MDA-MB-231 = test system: MDA-MB-231
Malme-3M = test system: Malme-3M
NCI/ADR-RES = test system: NCI/ADR-RES
PC-3 = test system: PC-3
SNB-75 = test system: SNB-75
SW-620 = test system: SW-620
T47D = test system: T47D
TK-10 = test system: TK-10
DLD-1 = test system: DLD-1
DMS-114 = test system: DMS-114
DMS-273 = test system: DMS-273
KM-20L2 = test system: KM-20L2
M19-MEL = test system: M19-MEL
XF498 = test system: XF498
HOP-18 = test system: HOP-18

Measured: GI50

CC1(C)CCC(C)(C)c2c1ccc(O)c2Cc1c(O)ccc2c1C(C)(C)CCC2(C)C
inactive: BT-549 2.33 µM | DU-145 2.23 µM | LOX IMVI 1.84 µM | M14 1.88 µM | MCF7 1.84 µM | MDA-MB-231 1.66 µM | Malme-3M 2.7 µM | NCI/ADR-RES 2.08 µM | PC-3 2 µM | SNB-75 2.01 µM | SW-620 2.18 µM | T47D 1.87 µM | TK-10 1.98 µM

C=CS(=O)(=O)c1c2cc(OC)ccc2nc2ccc(OC)cc12
inactive: BT-549 10.5 µM | DU-145 3.53 µM | LOX IMVI 2.21 µM | M14 7.46 µM | MCF7 2.94 µM | MDA-MB-231 15.5 µM | Malme-3M 2.04 µM | NCI/ADR-RES 10.4 µM | PC-3 7.29 µM | SNB-75 12.4 µM | SW-620 3.12 µM | T47D 3.43 µM | TK-10 7.62 µM

Clc1nc(Cl)nc(Nc2cccc3ccccc23)n1
inactive: DU-145 > 10 µM | LOX IMVI > 10 µM | M14 > 10 µM | MCF7 > 10 µM | MDA-MB-231 > 10 µM | Malme-3M > 10 µM | NCI/ADR-RES > 10 µM | PC-3 > 10 µM | SNB-75 > 10 µM | SW-620 > 10 µM | T47D > 10 µM | TK-10 > 10 µM

C=CCOC1=C(OCC=C)C(C2COC(C)(C)O2)OC1=O (stereo not drawn)
inactive: BT-549 > 100 µM | DU-145 > 100 µM | LOX IMVI 33.2 µM | M14 > 100 µM | MCF7 > 100 µM | MDA-MB-231 > 100 µM | Malme-3M > 100 µM | NCI/ADR-RES > 100 µM | PC-3 > 100 µM | SNB-75 > 100 µM | SW-620 > 100 µM | T47D > 100 µM | TK-10 > 100 µM

Fc1ccc(C(OCCN2CCC3CCC(C2)N3Cc2cc3ccccc3[nH]2)c2ccc(F)cc2)cc1 (stereo not drawn)
inactive: BT-549 2.32 µM | DU-145 1.85 µM | LOX IMVI 1.79 µM | M14 1.6 µM | MCF7 1.79 µM | MDA-MB-231 1.7 µM | Malme-3M 1.58 µM | NCI/ADR-RES 1.57 µM | PC-3 1.7 µM | SNB-75 1.89 µM | SW-620 1.56 µM | T47D 1.59 µM | TK-10 2.43 µM

O=C1CCCCC[C@]12SC[C@H]1CON=C12
inactive: BT-549 39.2 µM | DU-145 33.8 µM | LOX IMVI 35.2 µM | M14 22.3 µM | MCF7 21.9 µM | Malme-3M 18.8 µM | NCI/ADR-RES 25.9 µM | SW-620 50.8 µM | TK-10 > 100 µM

CC(=O)NNc1nc(C)c(C(=O)NNC(=O)C(=O)Nc2cccc(C(C)=O)c2)s1
inactive: DLD-1 28.1 µM | DMS-114 18.3 µM | DMS-273 34.8 µM | KM-20L2 59 µM | LOX IMVI 21.2 µM | M19-MEL 19.9 µM | SNB-75 17.3 µM | SW-620 39.5 µM | TK-10 16.9 µM | XF498 16.4 µM

O=C1NCN(c2ccccc2)C12CCN(CCCN1CCN(CCOC(c3ccc(F)cc3)c3ccc(F)cc3)CC1)CC2
inactive: BT-549 2.64 µM | DU-145 1.73 µM | LOX IMVI 1.86 µM | M14 1.88 µM | MCF7 1.92 µM | MDA-MB-231 2.15 µM | Malme-3M 1.37 µM | NCI/ADR-RES 11 µM | PC-3 3.05 µM | SW-620 2.61 µM | T47D 1.58 µM | TK-10 1.75 µM

CC1(C)C(=O)c2ccccc2OC1N1CCN(C2Oc3ccccc3C(=O)C2(C)C)CC1 (stereo not drawn)
inactive: BT-549 > 100 µM | DU-145 > 100 µM | LOX IMVI > 100 µM | M14 > 100 µM | MCF7 > 100 µM | MDA-MB-231 94.6 µM | Malme-3M 30.3 µM | NCI/ADR-RES > 100 µM | PC-3 > 100 µM | SNB-75 28 µM | SW-620 > 100 µM | T47D 83.4 µM | TK-10 > 100 µM

COC(=O)C1CC=C(SC(=O)c2ccccc2)N1C(=O)c1ccccc1 (stereo not drawn)
inactive: BT-549 > 100 µM | DU-145 > 100 µM | M14 > 100 µM | MCF7 > 100 µM | MDA-MB-231 > 100 µM | Malme-3M > 100 µM | NCI/ADR-RES > 100 µM | PC-3 > 100 µM | SNB-75 76 µM | SW-620 > 100 µM | T47D > 100 µM | TK-10 > 100 µM

CCCCP1(=O)C=CC(Cl)=C(C)C1 (stereo not drawn)
inactive: DLD-1 > 100 µM | HOP-18 > 100 µM | KM-20L2 > 100 µM | M14 > 100 µM | M19-MEL > 100 µM | Malme-3M > 100 µM | SW-620 > 100 µM | TK-10 > 100 µM

Cc1nc(-c2cccnc2)sc1C(=O)CC(=O)C(=O)Nc1cccc(NC(=O)C(=O)CC(=O)c2sc(-c3cccnc3)nc2C)n1
inactive: BT-549 > 100 µM | DU-145 > 100 µM | LOX IMVI > 100 µM | M14 > 100 µM | MCF7 > 100 µM | MDA-MB-231 > 100 µM | Malme-3M > 100 µM | NCI/ADR-RES > 100 µM | PC-3 > 100 µM | SNB-75 68.5 µM | SW-620 > 100 µM | T47D > 100 µM

COC(=O)C1CCC(=O)N1C(=O)Cc1ccc(OC)cc1 (stereo not drawn)
inactive: DMS-114 > 100 µM | DMS-273 > 100 µM | KM-20L2 > 100 µM | LOX IMVI > 100 µM | M14 > 100 µM | M19-MEL > 100 µM | SNB-75 > 100 µM | SW-620 > 100 µM | TK-10 > 100 µM | XF498 > 100 µM

c1ccc(/N=C2\S/C(=N\C3CCCCC3)N(C3CCCCC3)\C2=N/c2ccccc2)cc1
inactive: BT-549 > 100 µM | DU-145 > 100 µM | M14 > 100 µM | MCF7 > 100 µM | MDA-MB-231 > 100 µM | Malme-3M > 100 µM | NCI/ADR-RES > 100 µM | PC-3 67.1 µM | SNB-75 > 100 µM | T47D > 100 µM

CC1(C)COC(/C=C/C2=NC(C)(C)CO2)=N1
inactive: BT-549 23.1 µM | DU-145 13 µM | LOX IMVI 3.25 µM | M14 14.7 µM | MCF7 15.9 µM | MDA-MB-231 19.7 µM | Malme-3M 17.5 µM | NCI/ADR-RES 26.1 µM | PC-3 17.5 µM | SNB-75 > 100 µM | SW-620 12.7 µM | T47D 8.75 µM | TK-10 11.3 µM

CC1OC2=N[C@@H]1C(=O)N[C@@H](Cc1ccccc1)C1=N[C@H](C(=O)N[C@@H](Cc3ccccc3)C3=N[C@H](C(=O)N[C@H]2Cc2ccccc2)C(C)O3)C(C)O1 (stereo partly drawn)
inactive: BT-549 40 µM | DU-145 57.9 µM | LOX IMVI 17 µM | M14 22.6 µM | MCF7 45.9 µM | MDA-MB-231 33 µM | Malme-3M 22.4 µM | NCI/ADR-RES 44.6 µM | PC-3 22.4 µM | SW-620 37.2 µM | T47D 31.1 µM | TK-10 26.5 µM

COc1ccc(C2C(Cl)C(=O)N2NC(=O)c2ccccc2O)cc1 (stereo not drawn)
inactive: DMS-114 > 100 µM | KM-20L2 > 100 µM | M14 > 100 µM | M19-MEL > 100 µM | Malme-3M > 100 µM | SNB-75 > 100 µM | SW-620 > 100 µM | TK-10 > 100 µM
